# Patent US5990078A, “Means of increasing estrogen receptor levels in neural tissue” (The Trustees of Columbia University in the City of New York, priority 1996, dated 1999)
# “Also recorded” adds a separate entry of the source.
# What was measured:
# [1] = biological target: T1, estrogen receptor (Rattus norvegicus, UniProt P06211); assay: Scatchard analysis of [3H]-moxestrol binding, P14 hypothalamus; set-up: endogenous in cells
# T1 sequence (P06211 1-600): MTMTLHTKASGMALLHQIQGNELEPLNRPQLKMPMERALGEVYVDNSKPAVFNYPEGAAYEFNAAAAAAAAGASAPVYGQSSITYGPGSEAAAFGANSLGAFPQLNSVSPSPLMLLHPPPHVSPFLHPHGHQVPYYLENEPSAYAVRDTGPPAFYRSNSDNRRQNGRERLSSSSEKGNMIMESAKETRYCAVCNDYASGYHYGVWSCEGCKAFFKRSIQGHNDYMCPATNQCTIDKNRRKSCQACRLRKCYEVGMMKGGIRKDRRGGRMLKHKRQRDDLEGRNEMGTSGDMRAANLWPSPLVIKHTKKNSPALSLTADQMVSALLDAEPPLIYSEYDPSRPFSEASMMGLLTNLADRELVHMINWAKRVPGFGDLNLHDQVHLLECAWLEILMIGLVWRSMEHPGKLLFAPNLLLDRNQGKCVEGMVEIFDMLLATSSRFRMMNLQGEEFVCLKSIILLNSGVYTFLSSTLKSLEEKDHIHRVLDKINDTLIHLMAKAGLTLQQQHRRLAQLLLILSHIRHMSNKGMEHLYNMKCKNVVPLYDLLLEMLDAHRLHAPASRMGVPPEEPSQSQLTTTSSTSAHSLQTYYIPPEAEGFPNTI
# Experimental: (§1) Nuclear receptor binding sites were identified using previously published protocols (Sohrabji et al., 1994a,b) and were standardized for this experiment using both MCF-7 cells and hypothalamic tissue. Cortical and basal forebrain cultures were maintained for 8 days in vitro. At the end of this period, cultures were incubated for 2 h at 34° C. with […] [^3 H]-moxestol (R2858; specific activity 80 Ci/mmol) in feed (phenol red free RPMI+10% gelded horse serum). The gelded horse serum had undetectable levels of estrogens, androgens, and progesterone (see tissue culture protocol), so that there were no endogenous steroids to compete with the nuclear binding of moxestrol. Control cultures were exposed to [^3 H]-moxestrol in the presence of an excess (2 mM) of unlabeled diethyl stilbestrol (DES), a synthetic estrogen. The radioligand-containing feed was then removed and the cultures washed and harvested for nuclear pellets by sucrose gradient density centrifugation at 4° C. Radioactivity was eluted from nuclear pellets with 95% ethanol (moxestrol is completely soluble in >50% ethanol) and the radioactivity counted in a liquid scintillation counter. […] Specific binding was determined as the difference between total binding and non-specific binding (in the presence of an unlabeled competing ligand) and the data expressed as femtomoles of specifically bound [^3 H] -moxestrol/mg DNA. […]
# [2] = biological target: T2, estrogen receptor (Homo sapiens, UniProt P03372); assay: Scatchard analysis of [3H]-moxestrol binding, MCF7 cells
# T2 construct: Scatchard analysis on sectioned hypothalamic tissue and MCF7 cells using this protocol; endogenous in cells; host or cells: MCF-7 cells
# T2 sequence (P03372 1-595): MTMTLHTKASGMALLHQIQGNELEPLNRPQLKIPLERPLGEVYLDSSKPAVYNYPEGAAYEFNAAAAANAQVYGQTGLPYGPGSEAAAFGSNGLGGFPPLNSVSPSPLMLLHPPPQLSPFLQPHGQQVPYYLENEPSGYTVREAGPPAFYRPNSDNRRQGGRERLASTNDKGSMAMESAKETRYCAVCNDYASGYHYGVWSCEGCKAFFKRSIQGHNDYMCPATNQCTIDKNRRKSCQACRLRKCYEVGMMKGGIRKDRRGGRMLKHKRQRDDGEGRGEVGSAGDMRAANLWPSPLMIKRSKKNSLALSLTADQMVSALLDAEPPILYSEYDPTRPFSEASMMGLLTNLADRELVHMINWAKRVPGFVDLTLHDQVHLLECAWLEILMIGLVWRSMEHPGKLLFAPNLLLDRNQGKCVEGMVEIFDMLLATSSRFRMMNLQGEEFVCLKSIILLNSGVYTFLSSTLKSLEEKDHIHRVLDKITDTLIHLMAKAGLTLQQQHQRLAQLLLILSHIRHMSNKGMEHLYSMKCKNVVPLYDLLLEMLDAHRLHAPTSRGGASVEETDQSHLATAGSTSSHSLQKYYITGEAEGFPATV
# Experimental: as §1
# [3] = tested on: estrogen receptor; assay: Tyrosine phosphorylation of the estrogen receptor, cortical explants; assay type: cell-based
# Experimental: Estrogen and the neurotrophins have important roles in the developing and adult central nervous system (CNS). […] The hypothesis that estrogen/neurotrophin receptor co-expression leads to reciprocal regulation at the level of signal transduction, through cross-coupling of converging estrogen and neurotrophin signaling pathways whose end-points in the nucleus may be the very same genes was tested. Postnatal day 2 cerebral cortex was maintained as organotypic explants in roller tube culture for 7 days.
# [4] = tested on: PC12-E2 cells; assay: Morphological study of neurite growth in PC12-E2 cells; assay type: cell-based
# Source text: It has been previously reported that wild-type, differentiated PC12 pheochromocytoma cells express very low levels of estrogen receptors. Here it is reported that a PC12 cell variant, PC12-E2 (Wu, Bradshaw, J. Cell Physiol. 164:1995), is estrogen responsive and expresses high estrogen receptor level (≈50% of the levels observed in estrogen receptor over-expressing MCF-7 cells). Moreover, although tyrosine phosphorylation of the estrogen receptor appeared to be expressed constitutively, these cells responded to added estrogen. PC12-E2 responsiveness to estrogen was determined morphologically and by measuring estradiol-induced ERK activation. […] Preliminary co-precipitation experiments show an association between src and estrogen receptor, src with MEK (MAP Kinase/ERK-activating Kinase), and MEK with B-raf, MEK, which phosphorylates the ERKs on tyrosine residues, is known to exist as a complex consisting of at least hsp90 and B-raf.
# [5] = tested on: p75^NGFR mRNA; assay: Northern blot analysis of p75NGFR mRNA in PC12 cells; assay type: cell-based, rat; conditions: PC12 cells, NGF treatment
# Experimental: PC12 cells were cultured on collagen-coated coverslips or tissue culture dishes in phenol red-free RPMI 1640 (Gibco BRL) nutrient medium supplemented with 10% (heat-inactivated) gelded (steroid-deficient) horse serum (JRH Biological), according to a modification of standard procedures. In these experiments, fetal calf serum, which contains physiologic levels of estrogen, (32 pg/ml) was not used.
# Total RNA, prepared by a modification of the Chomczynski and Sacchi method, was size-fractionated (10-20 μg/lane) on a 1.2% agarose-18% formaldehyde gel and capillary-transferred to nylon membrane (Hybond-N; Amersham). Filters were prehybridized (4-18 h) and hybridized (36-40 h) at 42° C. in 50% Formamide, 3× SSC, 0.1M Tris, 5× Denhardt's and 10% Dextran Sulfate. Probes were labeled with [α-^32 P]-dCTP by the random priming procedure (Random Priming kit, Boehringer Mannheim). trkA mRNA was identified by hybridization with pDM97, a 450 bp trkA-specific probe corresponding to the extracellular and transmembrane domains of the trkA gene [67; gift of L. F. Parada, NCI-FCRDC]. p75^NGFR was probed by hybridization with p5b, a 2 Kb probe corresponding to the extracellular domain of the p75^NGFR gene. Blots were washed first in 0.2×SSC and 0.5% SDS briefly at room temperature and then for 2 h at 60° C., with frequent changes of wash buffer. Filters were then exposed to film (Kodak X-Omat) between intensifying screens and stored at -70° C. for 1-4 days before developing.
# Using a standard densitometry package (Jandel Scientific), optical density measurements were obtained from X-ray film. trkA and p75^NGFR transcript densities were normalized to an internal control to account for variation in the amount of RNA loaded.
# Total RNA was analyzed by Northern blot analyses, using ^32 P-labeled cDNA probes for trkA and p75^NGFR.
# [6] = biological target: T1, estrogen receptor; assay: Nuclear exchange assay: specific nuclear estrogen binding in PC12 cells; assay type: cell-based; set-up: endogenous in cells; conditions: for Nuclear estrogen binding after 4 days of NGF treatment: 4 days NGF
# Experimental: In these experiments, fetal calf serum, which contains physiologic levels of estrogen, (32 pg/ml) was not used.
# Estrogen binding was estimated by a modification of the nuclear exchange assay. […] Groups receiving estrogen were deprived of the steroid 24 h prior to the assay. […] Tubes were then centrifuged briefly (5 mins, 14000 g) to recover a pellet and washed (3×) in the same buffer, excluding Triton X. Since the estrogen receptor is a nuclear receptor, in some experiments a sucrose gradient protocol was employed to ensure a clean nuclear pellet. […] This mixture was then carefully layered over a buffer containing 1.8 M sucrose and centrifuged for 90 mins, at 15,000 g at 4° C., and the nuclear pellet recovered from the bottom of the tube. […] Specific binding was determined as the difference between total binding and non-specific binding (in the presence of an unlabeled competing ligand). […] Group differences were evaluated using one way analysis of variance with Student-Newman-Keuls test of planned post-hoc comparisons. Differences were considered significant at the 0.05 level.
# A modification of the nuclear exchange assay was used to determine the presence of estrogen binding sites in nuclear pellets of PC12 cells.
# [7] = biological target: T1, estrogen receptor; set-up: endogenous in cells; conditions: NGF-sensitive PC12 cells (Sohrabji et al., 1994a); cited from earlier work
# [8] = tested on: estrogen receptor mRNA; assay: In situ hybridization for estrogen receptor mRNA in PC12 cells; assay type: cell-based, rat; conditions: NGF-treated (14 days, >2 weeks)
# Source text: Estrogen receptor mRNA was identified using a previously described unique 48-base oligonucleotide sequence, identical to a region within the ligand-binding domain of the rat uterine estrogen receptor [51] and with less than 25% homology with the other members of the steroid receptor superfamily of DNA binding proteins. The probes were 3' end-labeled with digoxigenin-deoxyuridine-triphosphate using terminal deoxynucleotidyl transferase (BRL).
# In situ hybridization histochemistry for the estrogen receptor was performed according to the procedure described in Miranda and Toran-Allerand [71]. Briefly, paraformaldehyde-fixed cultures were hybridized with digoxigenin-labeled oligonucleotide for 16-18 hours, washed extensively and later incubated with antidigoxigenin antibody conjugated to alkaline phosphatase (Boehringer Mannheim). RNA-oligonucleotide hybrids were visualized with a blue color reaction (nitroblue tetrazolium salt/5-bromo-4-chloro-3-indolyl-phosphate) catalyzed by antibody-conjugated alkaline-phosphatase. Color reaction was terminated for all groups when color appeared fully developed in one condition. Coverslips were dehydrated briefly, cleared in Histoclear (National Diagnostics) and coverslipped in Permount. […]
# [9] = read-out: Dissociation constant (Kd)
molecule,measurement,setting,value
"C#C[C@]1(O)CC[C@H]2[C@@H]3CCc4cc(O)ccc4[C@H]3[C@@H](OC)C[C@@]21C [[^3 H]-moxestrol, 11β-methoxy-[^3 H]-moxestrol]",Maximal binding (Bmas),[1],310 fmol/mg DNA
same,Kd,[1]; [9],0.86 nM
same,Maximal binding (Bmas),[2],1800-2500 fmol/mg DNA
same,Kd,[2]; [9],0.7 to 0.78 nM
"NGF: nerve growth factor, member of the neurotrophin family of growth factors",Tyrosine phosphorylation of the estrogen receptor,[3],induced tyrosine phosphorylation
same,Neurite outgrowth,[4],extensive and rapid
same,Time to induction of neurite outgrowth,[4],≤ 24 h
same,p75NGFR mRNA vs untreated controls,[5],increase
same,Increase in specific nuclear estrogen binding vs naive (untreated) cells,[6]; NGF for 3 weeks (21 days),sixfold
same,Nuclear estrogen binding after 1 day of NGF exposure,"[6]; time course, 1 day NGF",No increase was observed
same,Nuclear estrogen binding after 4 days of NGF treatment,[6]; time course,noticeable elevation; also recorded: increase in estrogen binding is present as early as 4 days
same,Nuclear estrogen binding after 4 days of NGF treatment,"[6]; time course, listed as nerve growth factor",double
same,Increase in estrogen binding sites,[7],sixfold
same,Hybridization to estrogen receptor probe,[8],strongly hybridize
NT-3: neurotrophin-3,Tyrosine phosphorylation of the estrogen receptor,[3],not
"BDNF: brain-derived neurotrophic factor, a neurotrophin (protein, UniProt P23560 19-247, looked up) Neurotrophic factor BDNF …: APMKEANIRGQGGLAYPGVRTHGTLESVNGPKAGSRGLTSLADTFEHVIEELLDEDQKVRPNEENNKDADLYTSRVMLSSQVPLEPPLLFLLEEYKNYLDAANMSMRVRRHSDPARRGELSVCDSISEWVTAADKKTAVDMSGGTVTVLEKVPVSKGQLKQYFYETKCNPMGYTKEGCRGIDKRHWNSQCRTTQSYVRALTMDSKKRIGWRFIRIDTSCVCTLTIKRGR",Tyrosine phosphorylation of the estrogen receptor,[3],induced tyrosine phosphorylation
"NT-4/5: neurotrophin-4/5 (protein, UniProt P34130 81-210, looked up) Neurotrophin-4: GVSETAPASRRGELAVCDAVSGWVTDRRTAVDLRGREVEVLGEVPAAGGSPLRQYFFETRCKADNAEEGGPGAGGGGCRGVDRRHWVSECKAKQSYVRALTADAQGRVGWRWIRIDTACVCTLLSRTGRA",Tyrosine phosphorylation of the estrogen receptor,[3],induced tyrosine phosphorylation
